Laboratory results from patent US20110301087A1, “CRF1 RECEPTOR COMPOUNDS” (priority 2008, published 2011).
Where a SMILES comes first, the peptide text is derived from it. The star is where a group is joined. Palmitoyl = CCCCCCCCCCCCCCCC(=O)*

Molecular target: T1, CRF1 (Homo sapiens, UniProt P34998)
T1 construct: endogenously expresses functional CRF1; endogenous in cells; host or cells: Y-79 human retinoblastoma cells
T1 sequence (P34998 24-415): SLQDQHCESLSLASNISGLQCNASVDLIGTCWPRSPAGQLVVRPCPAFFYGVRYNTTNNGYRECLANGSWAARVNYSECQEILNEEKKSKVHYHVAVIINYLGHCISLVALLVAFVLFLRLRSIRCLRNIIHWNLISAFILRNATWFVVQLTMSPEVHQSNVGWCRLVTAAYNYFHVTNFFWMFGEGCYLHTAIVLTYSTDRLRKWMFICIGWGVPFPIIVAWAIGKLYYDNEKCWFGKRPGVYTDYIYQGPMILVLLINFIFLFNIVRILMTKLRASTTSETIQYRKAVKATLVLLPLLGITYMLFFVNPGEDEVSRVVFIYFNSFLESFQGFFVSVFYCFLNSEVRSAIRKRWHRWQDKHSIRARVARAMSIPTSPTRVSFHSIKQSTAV
Test: CRF1 assessment of cAMP (HTRF cAMP assay) in Y-79 cells, antagonist mode
Assay type: cell-based
Details: Y79 cells; for IC50: CRF1 cAMP screening, against agonist; for inhibition at 0.3 µM: 300 nM pepducin against agonist dose response, read-out: % Inhibition (± SD)
Source text: HTRF (homogeneous time resolved fluorescence) is a technology developed by Cisbio Bioassays based on TR-FRET (time-resolved fluorescence resonance energy transfer). Cisbio Bioassays has developed a wide selection of HTRF-based assays compatible with whole cells, thereby enabling functional assays run under more physiological conditions. cAMP kits are based on a competitive immunoassay using cryptate-labeled anti-cAMP antibody and d2-labeled cAMP. This assay allows the measurement of increase in intracellular cAMP upon Gs-coupled receptor activation as well as decrease in forskolin stimulated increase in cAMP upon Gi-coupled receptor activation. Cells expressing CRF1 endogenously or via transfection can be used to assess compound pharmacology using cAMP assays as a means to measure the activity of adenylyl cyclase resulting from CRF1 activation or inhibition.
An example of the use of the cAMP assay can be assessing CRF activation of CRF1 in Y-79, a human retinoblastoma cell line which endogenously expresses functional CRF1. Y-79 cells were seeded into 96-well half area black plates at 30K/well in Hank's balanced salt solution with 50 mM HEPES, 0.1% BSA, 200 uM IBMX. Compounds to be tested for agonist activity were added to cells, incubated for 30 minutes at 37 degrees C. and assayed for cAMP concentration. To test for antagonist activity, compounds to be tested were added to cells, followed by the addition of agonist at an experimentally determined optimal concentration, generally the EC80. Plates were incubated for 30 minutes at 37 degrees C. and assayed for cAMP. To determine concentration of cAMP in each well, d2-labeled cAMP in Conjugate/Lysis buffer was added to wells. This addition lysed the cells and input a known concentration of labeled cAMP. This was followed by the addition of anti-cAMP antibody conjugated to cryptate. FRET occurs when cryptate-labeled antibody binds to d2-labeled cAMP. Therefore, the specific signal is inversely proportional to the concentration of cAMP in the sample. Conversion of signal to concentration of cAMP in the well was accomplished by comparing the FRET signal of sample to a standard curve generated using known concentrations of cAMP.

IC50 [nM]	inhibition at 0.3 µM [%]	Structure (SMILES)
1000 to 5000	54 ± 13	CCCCCCCCCCCCCCCC(=O)N[C@@H](CCCNC(=N)N)C(=O)N[C@@H](CC(C)C)C(=O)N[C@@H](CCCNC(=N)N)C(=O)N[C@@H](CO)C(=O)N[C@H](C(=O)N[C@@H](CCCNC(=N)N)C(=O)N[C@@H](CO)C(=O)N[C@@H](CC(C)C)C(=O)N[C@@H](CCCNC(=N)N)C(=O)N[C@@H](CC(N)=O)C(=O)N[C@H](C(=O)N[C@H](C(=O)N[C@@H](Cc1c[nH]cn1)C(=O)N[C@@H](Cc1c[nH]c2ccccc12)C(=O)N[C@@H](CC(N)=O)C(N)=O)[C@@H](C)CC)[C@@H](C)CC)[C@@H](C)CC [Compound 5] (Palmitoyl-RLRSIRSLRNIIHWN-NH2)
501 to 1000	53 ± 14	CCCCCCCCCCCCCCCC(=O)NCC(=O)N[C@@H](CO)C(=O)N[C@H](C(=O)N[C@@H](CC(=O)O)C(=O)N[C@@H](CCCNC(=N)N)C(=O)N[C@@H](CC(C)C)C(=O)N[C@@H](CCCNC(=N)N)C(=O)N[C@@H](CCCCN)C(=O)N[C@@H](Cc1c[nH]c2ccccc12)C(=O)N[C@@H](CCSC)C(=O)N[C@@H](Cc1ccccc1)C(=O)N[C@H](C(N)=O)[C@@H](C)CC)[C@@H](C)O [Compound 29, Pal-GSTDRLRKWMFI-amide] (Palmitoyl-GSTDRLRKWMFI-NH2)
501 to 1000	53 ± 9	CCCCCCCCCCCCCCCC(=O)N[C@H](C(=O)N[C@@H](CC(=O)O)C(=O)N[C@@H](CCCNC(=N)N)C(=O)N[C@@H](CC(C)C)C(=O)N[C@@H](CCCNC(=N)N)C(=O)N[C@@H](CCCCN)C(=O)N[C@@H](Cc1c[nH]c2ccccc12)C(=O)N[C@@H](CCSC)C(=O)N[C@@H](Cc1ccccc1)C(=O)N[C@H](C(N)=O)[C@@H](C)CC)[C@@H](C)O [Compound 32, Pal-TDRLRKWMFI-amide] (Palmitoyl-TDRLRKWMFI-NH2)
1000 to 5000	36 ± 9	CCCCCCCCCCCCCCCC(=O)N[C@@H](CO)C(=O)N[C@H](C(=O)N[C@@H](CC(=O)O)C(=O)N[C@@H](CCCNC(=N)N)C(=O)N[C@@H](CC(C)C)C(=O)N[C@@H](CCCNC(=N)N)C(=O)N[C@@H](CCCCN)C(=O)N[C@@H](Cc1c[nH]c2ccccc12)C(=O)N[C@@H](CCSC)C(=O)N[C@@H](Cc1ccccc1)C(=O)N[C@H](C(N)=O)[C@@H](C)CC)[C@@H](C)O [Compound 33] (Palmitoyl-STDRLRKWMFI-NH2)
501 to 1000	21 ± 5	CCCCCCCCCCCCCCCC(=O)N[C@@H](Cc1ccc(O)cc1)C(=O)N[C@@H](CO)C(=O)N[C@H](C(=O)N[C@@H](CC(=O)O)C(=O)N[C@@H](CCCNC(=N)N)C(=O)N[C@@H](CC(C)C)C(=O)N[C@@H](CCCNC(=N)N)C(=O)N[C@@H](CCCCN)C(=O)N[C@@H](Cc1c[nH]c2ccccc12)C(=O)N[C@@H](CCSC)C(=O)N[C@@H](Cc1ccccc1)C(=O)N[C@H](C(N)=O)[C@@H](C)CC)[C@@H](C)O [Compound 34] (Palmitoyl-YSTDRLRKWMFI-NH2)
1000 to 5000	45 ± 19	CCCCCCCCCCCCCCCC(=O)NCC(=O)N[C@@H](CO)C(=O)N[C@H](C(=O)N[C@@H](CC(=O)O)C(=O)N[C@@H](CCCNC(=N)N)C(=O)N[C@@H](CC(C)C)C(=O)N[C@@H](CCCNC(=N)N)C(=O)N[C@@H](CCCCN)C(=O)N[C@@H](Cc1c[nH]c2ccccc12)C(=O)N[C@@H](CCSC)C(=O)N[C@@H](Cc1ccccc1)C(=O)N[C@@H](C)C(N)=O)[C@@H](C)O [Compound 37] (Palmitoyl-GSTDRLRKWMFA-NH2)
1000 to 5000	60 ± 8	CCCCCCCCCCCCCCCC(=O)NCC(=O)N[C@@H](CO)C(=O)N[C@H](C(=O)N[C@@H](CC(=O)O)C(=O)N[C@@H](CCCNC(=N)N)C(=O)N[C@@H](CC(C)C)C(=O)N[C@@H](CCCNC(=N)N)C(=O)N[C@@H](CCCCN)C(=O)N[C@@H](Cc1c[nH]c2ccccc12)C(=O)N[C@@H](CCSC)C(=O)N[C@@H](C)C(=O)N[C@H](C(N)=O)[C@@H](C)CC)[C@@H](C)O [Compound 38] (Palmitoyl-GSTDRLRKWMAI-NH2)
501 to 1000	61 ± 20	CCCCCCCCCCCCCCCC(=O)NCC(=O)N[C@@H](CO)C(=O)N[C@H](C(=O)N[C@@H](CC(=O)O)C(=O)N[C@@H](CCCNC(=N)N)C(=O)N[C@@H](CC(C)C)C(=O)N[C@@H](CCCNC(=N)N)C(=O)N[C@@H](CCCCN)C(=O)N[C@@H](C)C(=O)N[C@@H](CCSC)C(=O)N[C@@H](Cc1ccccc1)C(=O)N[C@H](C(N)=O)[C@@H](C)CC)[C@@H](C)O [Compound 40] (Palmitoyl-GSTDRLRKAMFI-NH2)

Continued, molecule first:

Structure (SMILES)	IC50 [nM]	inhibition at 0.3 µM [%]
CCCCCCCCCCCCCCCC(=O)NCC(=O)N[C@@H](CO)C(=O)NCC(=O)N[C@@H](CCCNC(=N)N)C(=O)N[C@@H](CC(C)C)C(=O)N[C@@H](CCCNC(=N)N)C(=O)N[C@@H](CCCCN)C(=O)N[C@@H](Cc1c[nH]c2ccccc12)C(=O)N[C@@H](CCSC)C(=O)N[C@@H](Cc1ccccc1)C(=O)N[C@H](C(N)=O)[C@@H](C)CC [Compound 26] (Palmitoyl-GSGRLRKWMFI-NH2)	1000 to 5000	63
CCCCCCCCCCCCCCCC(=O)NCC(=O)N[C@@H](CO)C(=O)N[C@@H](CCCNC(=N)N)C(=O)N[C@@H](CC(C)C)C(=O)N[C@@H](CCCNC(=N)N)C(=O)N[C@@H](CCCCN)C(=O)N[C@@H](Cc1c[nH]c2ccccc12)C(=O)N[C@@H](CCSC)C(=O)N[C@@H](Cc1ccccc1)C(=O)N[C@H](C(N)=O)[C@@H](C)CC [Compound 28] (Palmitoyl-GSRLRKWMFI-NH2)	1000 to 5000	52 ± 5
CCCCCCCCCCCCCCCC(=O)N[C@@H](CCCNC(=N)N)C(=O)N[C@@H](CC(C)C)C(=O)N[C@@H](CCCNC(=N)N)C(=O)N[C@@H](CCCCN)C(=O)N[C@@H](Cc1c[nH]c2ccccc12)C(=O)N[C@@H](CCSC)C(=O)N[C@@H](Cc1ccccc1)C(=O)N[C@H](C(N)=O)[C@@H](C)CC [Compound 30] (Palmitoyl-RLRKWMFI-NH2)	1000 to 5000	39 ± 7
CCCCCCCCCCCCCCCC(=O)N[C@@H](CC(=O)O)C(=O)N[C@@H](CCCNC(=N)N)C(=O)N[C@@H](CC(C)C)C(=O)N[C@@H](CCCNC(=N)N)C(=O)N[C@@H](CCCCN)C(=O)N[C@@H](Cc1c[nH]c2ccccc12)C(=O)N[C@@H](CCSC)C(=O)N[C@@H](Cc1ccccc1)C(=O)N[C@H](C(N)=O)[C@@H](C)CC [Compound 31] (Palmitoyl-DRLRKWMFI-NH2)	1000 to 5000	30 ± 17
CCCCCCCCCCCCCCCC(=O)N[C@@H](CCCNC(=N)N)C(=O)N[C@@H](CC(C)C)C(=O)N[C@@H](CCCNC(=N)N)C(=O)N[C@@H](CCCCN)C(=O)N[C@@H](Cc1c[nH]c2ccccc12)C(=O)N[C@@H](CCSC)C(=O)N[C@@H](C)C(=O)N[C@H](C(N)=O)[C@@H](C)CC [Compound 41] (Palmitoyl-RLRKWMAI-NH2)	501 to 1000	40
CCCCCCCCCCCCCCCC(=O)N[C@@H](CC(=O)O)C(=O)N[C@@H](CCCNC(=N)N)C(=O)N[C@@H](CC(C)C)C(=O)N[C@@H](CCCNC(=N)N)C(=O)N[C@@H](CCCCN)C(=O)N[C@@H](Cc1c[nH]c2ccccc12)C(=O)N[C@@H](CCSC)C(=O)N[C@@H](C)C(=O)N[C@H](C(N)=O)[C@@H](C)CC [Compound 42] (Palmitoyl-DRLRKWMAI-NH2)	5000 to 10000	65
